Data on two molecules can be found in PMC12977544, “Phenotypic high-throughput screening identifies modulators of gut microbial choline metabolism” (mBio, 2026).

One experiment relates to E. coli MS 200-1. The experiment can be described thus: TMA inhibition in bacterial whole cells (LC–MS/MS of d9-TMA from d9-choline). It is filed as cell-based, Escherichia coli MS 200-1. As to conditions: Escherichia coli, MS2001, 1.25 h; 1 mM d9-choline in PBS, 75 min, 37°C, anaerobic.
Experiment [1] deals with germ-free C57BL/6 mice colonized with defined community incl. E. coli MS 200-1. Kind of experiment: Serum TMAO in gnotobiotic mice after inhibitor treatment. It is filed as in vivo, Mus musculus C57BL/6. The method, then: One milliliter of culture from each of the six individually grown strains was added to create this mixed culture. In a biosafety cabinet, a 300 mg/mL stock of sterile inhibitor in filter-sterilized DMSO was prepared. After this preparation, a working solution of 3 mg/mL of the inhibitor stock in sterile 1% hydroxyethyl cellulose/1% polysorbate 80 was prepared within 4 days of gavaging the mice and stored at room temperature. A low dose of the inhibitor was also prepared, using a working solution of 0.3 mg/mL of the inhibitor stock in sterile 1% hydroxyethyl cellulose/1% polysorbate 80. The vehicle was prepared in the same way with DMSO without inhibitor. […] Two weeks after colonization, mice were administrated by gavage with 3 mg/kg of the inhibitor or vehicle between 6 and 8 a.m. once a day for three consecutive days. After a 10-day washout period, mice were orally administered 30 mg/kg of the inhibitor once a day (same time as above) for three consecutive days, and blood was collected 24 h after the last gavage. A fecal sample was collected before the first gavage. At sacrifice, tissues collected were blood, cecal contents, a fecal pellet, proximal colon, distal small intestine, liver, and kidney. Mice were anesthetized with isoflurane and underwent cardiac puncture for a terminal blood draw, followed by cervical dislocation. Tissues were snap-frozen in liquid nitrogen. Blood was spun down at 8,000 × g for 8 min at room temperature; the resulting serum layer was removed and snap-frozen. All snap-frozen tissues were stored at -80°C until needed. One volume of plasma and 4 volumes of ice-cold extraction solution (HPLC-grade methanol with 2.5 μM d9-TMAO internal standard) were combined and spun at 21,100 × g for 3 min at 4°C. One volume of the resulting supernatant was then mixed with 1 volume of HPLC-grade water. […] was used for peak quantification, and internal standards were utilized as a comparison to calculate plasma concentrations. Statistical significance was calculated using an unpaired t-test.

For orientation: EC50 means the midpoint of the concentration-response curve. `Cc1ccc(-c2cc(C(=O)NCCCN3CCc4ccccc4C3)c(C)[nH]2)cc1C` [Compound 5] came in with an EC50 in the experiment on E. coli MS 200-1 of 12 µM.

Take `Cc1ccc(-c2cc(C(=O)NCCCCCN3CCCCCC3)c(C)[nH]2)cc1C` [Compound 45]: the “Serum TMAO level relative to vehicle treatment” value in experiment [1] (gnotobiotic mice, 30 mg/kg oral gavage daily for 3 days, 1% choline diet, 24 h after last dose, P = 0.054) is recorded as “about 60 % of vehicle treatment”. Also, the “Decrease of serum TMAO levels” value in experiment [1] (gnotobiotic mice, 30 mg/kg, n = 8, P = 0.054) is on record as ~ 40%. In addition, the “Decrease of TMAO levels compared to vehicle treatment” value in experiment [1] (in vivo, mouse model not given) is “approximately 40%”.
